Consider 4 compounds from patent US20070059272A1 (priority 2005, published 2007).

The subject of one data set is MDCK cells. The format is cell-based.
In a further data set the test system is PA27853. Nature of the data set: Biofilm formation assay, PA27853. The format is cell-based, Pseudomonas aeruginosa.
Data set [1] concerns PA-I protein expression in PAO1. The format is cell-based, Pseudomonas aeruginosa.
Data set [2] concerns PA-I expression in P. aeruginosa. The format is cell-based, Pseudomonas aeruginosa.
Data set [3] deals with PA-I promoter activity in reporter strain PA27853/PLL-EGFP.
For the next data set, the system named is lecA (PA-I) mRNA in PAO1. Nature of the data set: Northern blot of PA-I (lecA) mRNA in PAO1. The settings on record: for PA-I mRNA by Northern blot: PAO1, 200 ng/ml cytokine in cell culture media, 4 hours. The format is cell-based, Pseudomonas aeruginosa.
The test system of data set [4] is pyocyanin (PCN) production in P. aeruginosa PAO1. The data set is classed as cell-based, Pseudomonas aeruginosa.
The test system of data set [5] is PCN production in PAO1 mutant strains. The format is cell-based, Pseudomonas aeruginosa.
The subject of another data set is P. aeruginosa. The data set is classed as cell-based, Pseudomonas aeruginosa.
The test system of data set [6] is PA-I expression in Pseudomonas strain PA27853. Nature of the data set: Quantitative RT-PCR of PA-I mRNA in PA27853 exposed to morphine. The data set is classed as cell-based, Pseudomonas aeruginosa.
Another data set relates to P. aeruginosa PA27853. Nature of the data set: Mice with slow release morphine pellets drinking PA27853-spiked formula. The data set is classed as in vivo. The note with it: daily oral 1×10^8 cfu/ml PA27853.
Data set [7] deals with membrane protein fractions of P. aeruginosa. Nature of the data set: Morphine binding to P. aeruginosa membrane protein fractions. Also noted: species or system Pseudomonas aeruginosa.
For data set [8] the following is noted: in vivo, iv; cited from earlier work.
The next data set relates to Caco-2 cells. Nature of the data set: TEER of Caco-2 monolayers inoculated with PA27853 with and without IFN-γ. The format is cell-based, human. As to the method:
(§1) In addition, strains were exposed to apical media from Caco-2 cells basolaterally exposed to single and combinations of the various epithelial-derived cytokines. […] Media from Caco-2 cells exposed to various combinations of these cytokines had no effect on PA-I expression. […] Using both ELISA, immunofluorescence microscopy, and flow cytometry, the binding characteristics of IFNγ were determined for both whole bacteria and membrane fractions of P. aeruginosa. […] These effects were also observed with strain PAO1. […] It has been difficult to immunoprecipitate a significant quantity of this protein from PA27853, but it has been determined that this protein can also be immunoprecipitated from E. coli (FIG. 12C). Next, IFN-γ binding specificity, to whole bacterial cells, was determined, using reiterative binding studies in the presence of various gram negatie bacterial strains, including P. aeruginosa. […] Finally, in order to determine if PA-I was functionally expressed in PA27853 in the presence IFN-γ, PA27853 was inoculated onto Caco-2 cell monolayers in the presence of IFN-γ and the effect on barrier dysregulating dynamics of PA27853 against this cell line were assessed to determine if IFN-γ shifted the dynamics. […]

Data set [9] has as its system PA-I expression in P. aeruginosa. Nature of the data set: PA-I expression in P. aeruginosa exposed to media containing candidate host agents. The data set is classed as cell-based, Pseudomonas aeruginosa. The note with it: P. aeruginosa in media containing adenosine, TNFα, IL-2, IL-6, IL-8 or IFNγ. The text has this:
FIG. 10. Exposure of P. aeruginosa to IFNγ induces PA-I expression and the expression of rhlI. For controls (lane 1, 2) bacteria are suspended in media I (Tryptic soy broth) and media II (DMEM +10% FBS ). Lane 3, 4 are MRNA levels from bacteria exposed to IFNγ and TNFα in DMEM.
In addition, strains were exposed to apical media from Caco-2 cells basolaterally exposed to single and combinations of the various epithelial-derived cytokines. […] Media from Caco-2 cells exposed to various combinations of these cytokines had no effect on PA-I expression. […] Using both ELISA, immunofluorescence microscopy, and flow cytometry, the binding characteristics of IFNγ were determined for both whole bacteria and membrane fractions of P. aeruginosa. […] These effects were also observed with strain PAO1. […] It has been difficult to immunoprecipitate a significant quantity of this protein from PA27853, but it has been determined that this protein can also be immunoprecipitated from E. coli (FIG. 12C). Next, IFN-γ binding specificity, to whole bacterial cells, was determined, using reiterative binding studies in the presence of various gram negatie bacterial strains, including P. aeruginosa. […]

For data set [10], the system named is rhlI transcription in PAO1. Nature of the data set: Northern blot of rhlI gene expression in PAO1. The data set is classed as cell-based, Pseudomonas aeruginosa.
The next data set has as its system C4-HSL synthesis in PAO1. Nature of the data set: C4-HSL in PAO1 supernatant by luminescence reporter strain pSB536. The data set is classed as cell-based, Pseudomonas aeruginosa. The settings on record: PAO1, 100 ng/ml IFN-γ, bacterial supernatants.
The test system of data set [11] is whole cells of P. aeruginosa (strain PAO1). Nature of the data set: IFN-γ binding to whole cells of P. aeruginosa PAO1 (ELISA, immunofluorescence). Also noted: species or system Pseudomonas aeruginosa. As to the method: IFN-γ direct binding to a protein on the surface of P. aeruginosa, in the course of virulence activation, was also investigated. ELISA binding assays were performed by first coating microtiter plates with P. aeruginosa (strain PAO1), then adding recombinant human IFN-γ (rH IFN-γ), followed by biotin-labeled anti-IFN-γ antibody. IFN-γ avidly bound to whole fixed cells of P. aeruginosa in a dose-dependent manner (FIG. 25A). The ELISA data were confirmed by the results of immunofluorescent imaging of bacterial cells exposed to IFN-γ followed by biotin-labeled anti-IFN-γ antibody and Alexa 594-labeled streptavidin. The vast majority of bacterial cells (73%±3.2% vs. 8.5%±2.5%) bound IFN-γ (FIG. 25B, FIG. 27). The binding capacity of the IFN-γ to the P. aeruginosa was affected by bacterial growth phase (FIG. 28A). In order to localize the binding site of IFN-γ to P. aeruginosa (PAO1), equal protein concentrations of membrane and cytosol fractions of P. aeruginosa were prepared and coated onto ELISA microtiter plates. […] To determine if the observed membrane binding by IFN-γ was protein dependent, membrane fractions were treated with proteinase K for 3 hours and IFN-γ binding assessed.
For orientation: In an ELISA, binding on a coated surface is turned into a signal by an enzyme label.

The subject of data set [12] is whole bacterial cells of PA27853. Nature of the data set: IFN-γ binding to whole bacterial cells of PA27853. Also noted: species or system Pseudomonas aeruginosa. As to the method:
as §1

In data set [13] the test system is membrane fractions of P. aeruginosa (PAO1). Nature of the data set: ELISA binding to membrane fractions and solubilized membrane proteins of P. aeruginosa PAO1. Also noted: species or system Pseudomonas aeruginosa.
In another data set the target is T1, OprF (Pseudomonas aeruginosa, UniProt P13794).
T1 sequence (P13794 25-350): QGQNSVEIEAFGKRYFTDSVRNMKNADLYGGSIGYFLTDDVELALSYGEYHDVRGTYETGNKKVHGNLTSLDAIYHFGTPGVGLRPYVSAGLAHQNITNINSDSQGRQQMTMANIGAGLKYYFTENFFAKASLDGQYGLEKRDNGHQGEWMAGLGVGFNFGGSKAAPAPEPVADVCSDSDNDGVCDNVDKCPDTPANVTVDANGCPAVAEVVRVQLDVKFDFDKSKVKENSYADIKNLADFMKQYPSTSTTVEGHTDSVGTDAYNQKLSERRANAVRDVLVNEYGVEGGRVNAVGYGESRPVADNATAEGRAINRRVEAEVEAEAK
Nature of the data set: ELISA binding of IFN-γ to purified OprF. The settings on record: dose-dependent.

Data set [14] relates to PA-I protein expression in P. aeruginosa mutant strains. Nature of the data set: PA-I expression in PAO1 mutant strains exposed to IFN-γ. The format is cell-based, Pseudomonas aeruginosa.

Some results are limits rather than exact numbers.

As for `C=CCN1C[C@H](C)N([C@H](c2ccc(C(=O)N(CC)CC)cc2)c2cccc(O)c2)C[C@H]1C` [BW373U86], in the data set with MDCK cells, the “TEER of MDCK cells following apical exposure to PA27853 plus opioid” value is “more profound decrease in the TEER”. In the data set on PA27853, the biofilm production entry was “especially increased”. Further, the PA-I protein entry in [1] is given as “same degree as C4-HSL”. The “response to express PA-I” value in [2] is recorded as “robust response”. Further, the “PA-I expression as judged by fluorescence of the GFP reporter strain” value in data set [3] is listed as “greatest effect on PA-I expression”.
With `CCCC(=O)N[C@H]1CCOC1=O` [C4-HSL, C4-homoserine lactone], in data set [1], the PA-I protein expression result is listed as “responds to varying doses”. Moreover, the “PA-I mRNA by Northern blot” value with lecA (PA-I) mRNA in PAO1 was “Induction of PA-I mRNA was observed”. Besides, the “onset of PCN production versus cell density” value in data set [4] is recorded as “shift in the production of PCN at lower cell densities”. Moreover, in data set [5], the “PCN production in rhlR mutant strain” value is given as “did not restore PCN production”; the “PCN production in seven additional mvfR mutants” value was “none of these mutants produced PCN”; the “PCN production in ΔGacA and ΔMvfR” value is given as “unable to restore PCN production”; the “PCN production in ΔGacA/gacA” value was “decreased, albeit minimally”. In data set [5], the “PCN production in ΔMvfR/mvfR” value is listed as “further increased”; the “PCN response of MvfR truncation mutant 121-332” value was “did not respond”; the “PCN response of MvfR truncation mutants 1-292, 1-291 and 1-283” value is listed as “did not respond”; the “PCN response of MvfR truncation mutants 1-299 and 1-293” value was “enhanced PCN production”. Besides, in data set [5], the “dynamics of PCN production in ΔGacA/gacA” value is on record as “no effect on the dynamics of PCN production” and the “dynamics of PCN production in ΔMvfR/mvfR” value was “shift in PCN production at lower cell densities”. For the same compound, the “bacterial growth in TSB media” value in the data set on P. aeruginosa is recorded as “Neither compound had an effect”. For the same compound, the “PA-I expression, in vitro studies” value in [2] was “induced PA-I expression”.
Take `CN1CC[C@]23c4c5ccc(O)c4O[C@H]2[C@@H](O)C=C[C@H]3[C@H]1C5` [morphine]: the PA-I expression entry in [6] (PA27853, physiologic concentrations of morphine (13 μM)) was “four-fold increase”. In addition, in data set [6] (PA27853 exposed to morphine (13 μM), quantitative RT-PCR), the “increase in PA-I mRNA” value came to 4 fold. In the data set on P. aeruginosa PA27853, the “mice that developed severe sepsis” value is recorded as 4/4 and the mortality entry was “significant mortality”. The “response to express PA-I” value in [2] was “robust response”. Also, the “binding to membrane protein fractions” value in data set [7] is reported as “binds to membrane protein fractions”. Moreover, in data set [8], the “concentration at tissue sites such as the intestinal mucosa” value is at most 100 µM.
Take “IFN-γ: human recombinant Interferon gamma”: the “barrier dysregulating effect of PA27853 (TEER)” value with Caco-2 cells (Caco-2, five hours of incubation) was “enhanced the barrier dysregulating effect”. Moreover, the “TEER, IFN-γ alone” value with Caco-2 cells (Caco-2, no bacteria) is “Neither media nor IFN-γ alone altered TEER”. Further, in [1], the “IFN-γ concentration with the greatest increase in PA-I protein expression” value was 100 ng/mL and the PA-I protein entry was “increased”. In addition, the “PA-I mRNA by Northern blot” value in the data set with lecA (PA-I) mRNA in PAO1 is reported as “Induction of PA-I mRNA was observed”. Further, the “PA-I mRNA” value in the data set on lecA (PA-I) mRNA in PAO1 (early stationary phase of growth) is “increased”. For the same compound, in [9], the “PA-I expression, candidate agents alone” value is listed as “induced a direct effect on PA-I expression”. Also, the rhlI transcription entry in data set [10] is reported as “induced”. Besides, the C4-HSL synthesis result in the data set with C4-HSL synthesis in PAO1 was “increased”. Also, the pyocyanin production entry in data set [4] is given as “increased pyocyanin production”. The “PCN production induced by IFN-γ in rhlI and rhlR mutant strains” value in data set [5] is reported as “abolished”. The “binding to whole fixed cells by ELISA” value in data set [11] (PAO1, recombinant human IFN-γ) was “avidly bound”. Besides, in [11] (immunofluorescent imaging, versus 8.5%±2.5% control), the “bacterial cells that bound IFN-γ” value is 73%±3.2%. The “binding to whole bacterial cells” value in data set [12] is “high binding affinity”. For the same compound, the “binding to membrane versus cytosol fractions” value in data set [13] (equal protein concentrations, ELISA) is “preferentially bound to membrane fractions”. Further, the “binding to membranes after proteinase K” value in [13] (proteinase K for 3 hours) is on record as “decreased”. The “binding to solubilized membrane proteins of OprF knockout strains” value in data set [13] (versus wild-type PAO1, ELISA) is reported as “reduced binding”. The “binding to purified OprF” value in the data set with OprF is reported as “directly binds”. For the same compound, in data set [2], the “PA-I expression, in vitro studies” value is on record as “induced PA-I expression” and the “response to express PA-I” value is “robust response”. Further, the “PA-I expression induced by IFN-γ in rhlI and rhlR mutant strains” value in data set [14] is “abolished”. In addition, the “PA-I protein expression in OprF mutant strains” value in data set [14] (100 ng/ml of IFN-γ) is on record as “failed to increase the expression of the PA-I protein”. In data set [14] (plasmid pUCP24/OprF), the “PA-I protein expression in strain 31899 reconstituted with OprF” value was “recovery of their responsiveness”. The “PA-I expression in reporter strain exposed to cytokines” value in [3] is listed as “significant increase in PA-I expression”.
